In brackets after ≈: the same amount, converted by molar mass.
Legend:
Format in all cases: functional
[1] = tested on: Pseudomonas aeruginosa; test: Antibacterial activity against Pseudomonas aeruginosa
[2] = tested on: Escherichia coli; test: Antibacterial activity against Escherichia coli
[3] = tested on: Staphylococcus aureus; test: Antibacterial activity against Staphylococcus aureus
[4] = tested on: Mycolicibacterium phlei; test: Antibacterial activity against Mycobacterium phlei clinical isolate after 3 to 7 days by cup diffusion method
[5] = tested on: Pseudomonas aeruginosa; test: Antibacterial activity against Pseudomonas aeruginosa assessed as zone of inhibition at 10 mg/ml after 3 to 7 days by cup diffusion method; conditions: read-out: IZ
[6] = tested on: Mycolicibacterium phlei; test: Antibacterial activity against Mycobacterium phlei clinical isolate assessed as zone of inhibition at 10 mg/ml after 3 to 7 days by cup diffusion method; conditions: read-out: IZ
[7] = tested on: Aggregatibacter actinomycetemcomitans; test: Antibacterial activity against Aggregatibacter actinomycetemcomitans ATCC 29524 assessed as zone of inhibition at 10 mg/ml after 3 to 7 days by cup diffusion method; conditions: read-out: IZ
[8] = tested on: Staphylococcus aureus; test: Antibacterial activity against Staphylococcus aureus after 3 to 7 days by cup diffusion method
[9] = tested on: Escherichia coli; test: Antibacterial activity against Escherichia coli assessed as zone of inhibition at 10 mg/ml after 3 to 7 days by cup diffusion method; conditions: read-out: IZ
[10] = tested on: Pseudomonas aeruginosa; test: Antibacterial activity against Pseudomonas aeruginosa after 3 to 7 days by cup diffusion method
[11] = tested on: Bacillus subtilis; test: Antibacterial activity against Bacillus subtilis assessed as zone of inhibition at 10 mg/ml after 3 to 7 days by cup diffusion method; conditions: read-out: IZ
[12] = tested on: Staphylococcus aureus; test: Antibacterial activity against Staphylococcus aureus assessed as zone of inhibition at 10 mg/ml after 3 to 7 days by cup diffusion method; conditions: read-out: IZ
[13] = tested on: Aggregatibacter actinomycetemcomitans; test: Antibacterial activity against Aggregatibacter actinomycetemcomitans ATCC 29524 after 3 to 7 days by cup diffusion method
[14] = tested on: Escherichia coli; test: Antibacterial activity against Escherichia coli after 3 to 7 days by cup diffusion method
[15] = tested on: Bacillus subtilis; test: Antibacterial activity against Bacillus subtilis after 3 to 7 days by cup diffusion method

Row | SMILES | MIC [1] | MIC [2] | MIC [3] | MIC [4] | zone of inhibition at 10000 µg/mL [5] | zone of inhibition at 10000 µg/mL [6] | zone of inhibition at 10000 µg/mL [7] | MIC [8] | zone of inhibition at 10000 µg/mL [9] | MIC [10] | zone of inhibition at 10000 µg/mL [11] | zone of inhibition at 10000 µg/mL [12] | MIC [13] | MIC [14] | MIC [15] | other results
1 | Cc1cccc2c(-c3ccccc3)cc(=O)n(Cc3nnc(S)n3N)c12 | 8 to 256 µg/mL (≈ 22 to 704 µM) | 8 to 256 µg/mL (≈ 22 to 704 µM) | 8 to 256 µg/mL (≈ 22 to 704 µM) |  |  |  |  |  |  |  |  |  |  |  |  | 
2 | Nn1c(S)nnc1Cn1c(=O)cc(-c2ccccc2)c2cc(Cl)ccc21 | 8 to 256 µg/mL (≈ 20.8 to 667 µM) | 8 to 256 µg/mL (≈ 20.8 to 667 µM) | 8 to 256 µg/mL (≈ 20.8 to 667 µM) |  |  |  |  |  |  |  |  |  |  |  |  | 
3 | Nn1c(S)nnc1Cn1c(=O)cc(-c2ccccc2)c2ccc(Cl)cc21 | 8 to 256 µg/mL (≈ 20.8 to 667 µM) | 8 to 256 µg/mL (≈ 20.8 to 667 µM) | 8 to 256 µg/mL (≈ 20.8 to 667 µM) |  |  |  |  |  |  |  |  |  |  |  |  | 
4 | CCn1cc(-c2nc(NC(=O)CCl)n[nH]2)c(=O)c2ccc(C)nc21 |  |  |  | >=0.031 - 32 ug ml-1 | 20 to 40 mm | 20 to 40 mm | 20 to 40 mm | >=0.031 - 32 ug ml-1 | 20 to 40 mm | >=0.031 - 32 ug ml-1 | 20 to 40 mm | 20 to 40 mm | >=0.031 - 32 ug ml-1 | >=0.031 - 32 ug ml-1 | >=0.031 - 32 ug ml-1 | 
5 | CCn1cc(-c2nc(/N=C/c3ccc(Cl)cc3Cl)n[nH]2)c(=O)c2ccc(C)nc21 |  |  |  | >=0.031 - 32 ug ml-1 | 20 to 40 mm | 20 to 40 mm | 20 to 40 mm | >=0.031 - 32 ug ml-1 | 20 to 40 mm | >=0.031 - 32 ug ml-1 | 20 to 40 mm | 20 to 40 mm | >=0.031 - 32 ug ml-1 | >=0.031 - 32 ug ml-1 | >=0.031 - 32 ug ml-1 | 
6 | CCn1cc(-c2nc(/N=C/c3ccccc3O)n[nH]2)c(=O)c2cc(Br)c(C)nc21 |  |  |  |  | 20 to 40 mm | 20 to 40 mm | 20 to 40 mm |  | 20 to 40 mm |  | 20 to 40 mm | 20 to 40 mm |  |  |  | MIC ([4]; Mycolicibacterium phlei, read-out: MIC): 3.68 to 6.3 µM (≈ 1.67 to 2.86 µg/mL); MIC ([8]; Staphylococcus aureus, read-out: MIC): 3.68 to 6.3 µM (≈ 1.67 to 2.86 µg/mL); MIC ([10]; Pseudomonas aeruginosa, read-out: MIC): 3.68 to 6.3 µM (≈ 1.67 to 2.86 µg/mL); MIC ([13]; Aggregatibacter actinomycetemcomitans, ATCC 29524, read-out: MIC): 3.68 to 6.3 µM (≈ 1.67 to 2.86 µg/mL); MIC ([14]; Escherichia coli, read-out: MIC): 3.68 to 6.3 µM (≈ 1.67 to 2.86 µg/mL); MIC ([15]; Bacillus subtilis, read-out: MIC): 3.68 to 6.3 µM (≈ 1.67 to 2.86 µg/mL)
7 | CCn1cc(-c2nc(/N=C/c3ccc(Br)cc3)n[nH]2)c(=O)c2ccc(C)nc21 |  |  |  | >=0.031 - 32 ug ml-1 | 20 to 40 mm | 20 to 40 mm | 20 to 40 mm | >=0.031 - 32 ug ml-1 | 20 to 40 mm | >=0.031 - 32 ug ml-1 | 20 to 40 mm | 20 to 40 mm | >=0.031 - 32 ug ml-1 | >=0.031 - 32 ug ml-1 | >=0.031 - 32 ug ml-1 | 
8 | CCn1cc(-c2nc(NC(=O)c3ccc(F)cc3)n[nH]2)c(=O)c2ccc(C)nc21 |  |  |  | >=0.031 - 32 ug ml-1 | 20 to 40 mm | 20 to 40 mm | 20 to 40 mm | >=0.031 - 32 ug ml-1 | 20 to 40 mm | >=0.031 - 32 ug ml-1 | 20 to 40 mm | 20 to 40 mm | >=0.031 - 32 ug ml-1 | >=0.031 - 32 ug ml-1 | >=0.031 - 32 ug ml-1 | 
9 | CCn1cc(-c2nc(NC(=O)c3ccc(OC)cc3)n[nH]2)c(=O)c2ccc(C)nc21 |  |  |  | >=0.031 - 32 ug ml-1 | 20 to 40 mm | 20 to 40 mm | 20 to 40 mm | >=0.031 - 32 ug ml-1 | 20 to 40 mm | >=0.031 - 32 ug ml-1 | 20 to 40 mm | 20 to 40 mm | >=0.031 - 32 ug ml-1 | >=0.031 - 32 ug ml-1 | >=0.031 - 32 ug ml-1 | 
10 | CCn1cc(-c2nc(/N=C/c3ccccc3)n[nH]2)c(=O)c2ccc(C)nc21 |  |  |  | >=0.031 - 32 ug ml-1 | 20 to 40 mm | 20 to 40 mm | 20 to 40 mm | >=0.031 - 32 ug ml-1 | 20 to 40 mm | >=0.031 - 32 ug ml-1 | 20 to 40 mm | 20 to 40 mm | >=0.031 - 32 ug ml-1 | >=0.031 - 32 ug ml-1 | >=0.031 - 32 ug ml-1 | 
